Assay results: PMC9186362, “Design and biological evaluation of substituted 5,7-dihydro-6H-indolo[2,3-c]quinolin-6-one as novel selective Haspin inhibitors” (Journal of Enzyme Inhibition and Medicinal Chemistry, 2022)

Legend:
MmCLK1 = MmCLK1 (Mus musculus, UniProt P22518); assay: ADP-Glo kinase assay; format: biochemical, Mus musculus (Mm)
Protocol: Kinase activities were determined using the ADP-Glo methodology (ADP-Glo Kinase Assay; Promega) according to the assay described by Nguyen et al.[32] except for MmCLK1. The later was assayed in the following buffer: 10 mM MgCl2, 1 mM EGTA, 1 mM DTT, 25 mM Tris-HCl pH 7.5, 50 µg/ml heparin, 0.15 mg/ml BSA, with 0.027 µg/µl of the following peptide: GRSRSRSRSRSR as substrate.

TAOK1 = target: T1, TAOK1 (Homo sapiens, UniProt Q7L7X3); assay: LanthaScreen Binding - Eu-anti-GST; details: read-out: Percentage of inhibition
T1 construct: purchased Life Technologies
Protocol: (§1) We further evaluated the selectivity profile of compound 55 on a larger panel of kinases (SelectScreen Whole Panel, Life Technologies). The inhibition profile of 55, evaluated at 1 μM, is depicted on a dendrogram on Figure 3 where kinases inhibited by a minimum of 80% are shown. A full list of the kinases tested is shown on Table S1 in supplementary information.

CDK14 (PFTK1)/cyclin Y = target: T2, CDK14 (PFTK1)/cyclin Y (Homo sapiens, UniProt O94921); assay: LanthaScreen Binding - Eu-anti-GST; details: read-out: Percentage of inhibition
T2 construct: purchased Life Technologies
Protocol: as §1

STK32B (YANK2) = STK32B (YANK2) (Homo sapiens, UniProt Q9NY57); assay: LanthaScreen Binding - Eu-anti-GST; details: read-out: Percentage of inhibition
Protocol: as §1

ALK C1156Y = target: T3, ALK C1156Y (Homo sapiens, UniProt Q9UM73, C1156Y); assay: LanthaScreen Binding - Eu-anti-GST; details: read-out: Percentage of inhibition
T3 construct: purchased Life Technologies
Protocol: as §1

MYO3B (MYO3 beta) = target: T4, MYO3B (MYO3 beta) (Homo sapiens, UniProt Q8WXR4); assay: LanthaScreen Binding - Eu-anti-GST; details: read-out: Percentage of inhibition
T4 construct: purchased Life Technologies (SelectScreen Whole Panel)
Protocol: as §1

ALK T1151_L1152insT = target: T5, ALK T1151_L1152insT (Homo sapiens, UniProt Q9UM73, INS1151T); assay: LanthaScreen Binding - Eu-anti-GST; details: read-out: Percentage of inhibition
T5 construct: purchased Life Technologies
Protocol: as §1

SIK3 = SIK3 (Homo sapiens, UniProt Q9Y2K2); assay: LanthaScreen Binding - Eu-anti-GST; details: read-out: Percentage of inhibition
Protocol: as §1

MLK4 = target: T6, MLK4 (Homo sapiens, UniProt Q5TCX8); assay: LanthaScreen Binding - Eu-anti-GST; details: read-out: Percentage of inhibition
T6 construct: purchased Life Technologies (SelectScreen Whole Panel service)
Protocol: as §1

RET G691S = target: T7, RET G691S (Homo sapiens, UniProt P07949, G691S); assay: LanthaScreen Binding - Eu-anti-GST; details: read-out: Percentage of inhibition
T7 construct: purchased Life Technologies (SelectScreen service)
Protocol: as §1

LIMK2 = target: T8, LIMK2 (Homo sapiens, UniProt P53671); assay: LanthaScreen Binding - Eu-anti-GST; details: read-out: Percentage of inhibition
T8 construct: purchased Life Technologies (SelectScreen Whole Panel service)
Protocol: as §1

BRAF = target: T9, BRAF (Homo sapiens, UniProt P15056); assay: LanthaScreen Binding - Eu-anti-GST; details: read-out: Percentage of inhibition
T9 construct: purchased Life Technologies (SelectScreen Whole Panel)
Protocol: as §1

AAK1 = target: T10, AAK1 (Homo sapiens, UniProt Q2M2I8); assay: LanthaScreen Binding - Eu-anti-GST; details: read-out: Percentage of inhibition
T10 construct: purchased Life Technologies
Protocol: as §1

ICK = ICK (Homo sapiens, UniProt Q9UPZ9); assay: LanthaScreen Binding - Eu-anti-GST; details: read-out: Percentage of inhibition
Protocol: as §1

DDR1 = target: T11, DDR1 (Homo sapiens, UniProt Q08345); assay: LanthaScreen Binding - Eu-anti-GST; details: read-out: Percentage of inhibition
T11 construct: purchased Life Technologies
Protocol: as §1

MYO3A (MYO3 alpha) = target: T12, MYO3A (MYO3 alpha) (Homo sapiens, UniProt Q8NEV4); assay: LanthaScreen Binding - Eu-anti-GST; details: read-out: Percentage of inhibition
T12 construct: purchased Life Technologies
Protocol: as §1

CAMK2G (CaMKII gamma) = target: T13, CAMK2G (CaMKII gamma) (Homo sapiens, UniProt Q13555); assay: LanthaScreen Binding - Eu-anti-GST; details: read-out: Percentage of inhibition
T13 construct: purchased Life Technologies
Protocol: as §1

GAK = target: T14, GAK (Homo sapiens, UniProt O14976); assay: LanthaScreen Binding - Eu-anti-GST; details: read-out: Percentage of inhibition
T14 construct: purchased Life Technologies (SelectScreen service)
Protocol: as §1

LATS2 = target: T15, LATS2 (Homo sapiens, UniProt Q9NRM7); assay: LanthaScreen Binding - Eu-anti-GST; details: read-out: Percentage of inhibition
T15 construct: purchased Life Technologies (SelectScreen service)
Protocol: as §1

MYLK4 = target: T16, MYLK4 (Homo sapiens, UniProt Q86YV6); assay: LanthaScreen Binding - Eu-anti-GST; details: read-out: Percentage of inhibition
T16 construct: purchased Life Technologies (SelectScreen Whole Panel)
Protocol: as §1

PKN2 (PRK2) = target: T17, PKN2 (PRK2) (Homo sapiens, UniProt Q16513); assay: LanthaScreen Binding - Eu-anti-GST; details: read-out: Percentage of inhibition
T17 construct: purchased Life Technologies
Protocol: as §1

KIT D816H = target: T18, KIT D816H (Homo sapiens, UniProt P10721, D816H); assay: LanthaScreen Binding - Eu-anti-GST; details: read-out: Percentage of inhibition
T18 construct: purchased Life Technologies (SelectScreen service)
Protocol: as §1

MAP3K5 (ASK1) = target: T19, MAP3K5 (ASK1) (Homo sapiens, UniProt Q99683); assay: LanthaScreen Binding - Eu-anti-GST; details: read-out: Percentage of inhibition
T19 construct: purchased Life Technologies
Protocol: as §1

ACVR2A = target: T20, ACVR2A (Homo sapiens, UniProt P27037); assay: LanthaScreen Binding - Eu-anti-GST; details: read-out: Percentage of inhibition
T20 construct: purchased Life Technologies (SelectScreen)
Protocol: as §1

KIT T670E = KIT T670E (Homo sapiens, UniProt P10721, T670E); assay: LanthaScreen Binding - Eu-anti-GST; details: read-out: Percentage of inhibition
Protocol: as §1

DDR2 T654M = target: T21, DDR2 T654M (Homo sapiens, UniProt Q16832, T654M); assay: LanthaScreen Binding - Eu-anti-GST; details: read-out: Percentage of inhibition
T21 construct: purchased Life Technologies (SelectScreen service)
Protocol: as §1

STK38 (NDR) = target: T22, STK38 (NDR) (Homo sapiens, UniProt Q15208); assay: LanthaScreen Binding - Eu-anti-GST; details: read-out: Percentage of inhibition
T22 construct: purchased Life Technologies (SelectScreen Whole Panel service)
Protocol: as §1

ULK2 = target: T23, ULK2 (Homo sapiens, UniProt Q8IYT8); assay: LanthaScreen Binding - Eu-anti-GST; details: read-out: Percentage of inhibition
T23 construct: purchased Life Technologies (SelectScreen service)
Protocol: as §1

CDK11/cyclin C = target: T24, CDK11/cyclin C (Homo sapiens, UniProt Q9BWU1); assay: LanthaScreen Binding - Eu-anti-GST; details: read-out: Percentage of inhibition
T24 construct: purchased Life Technologies
Protocol: as §1

TTK = target: T25, TTK (Homo sapiens, UniProt P33981); assay: LanthaScreen Binding - Eu-anti-GST; details: read-out: Percentage of inhibition
T25 construct: purchased Life Technologies
Protocol: as §1

MAP3K14 (NIK) = target: T26, MAP3K14 (NIK) (Homo sapiens, UniProt Q99558); assay: LanthaScreen Binding - Eu-anti-GST; details: read-out: Percentage of inhibition
T26 construct: purchased Life Technologies (SelectScreen service)
Protocol: as §1

ABL1 Q252H = target: T27, ABL1 Q252H (Homo sapiens, UniProt P00519, Q252H); assay: LanthaScreen Binding - Eu-anti-GST; details: read-out: Percentage of inhibition
T27 construct: purchased Life Technologies (SelectScreen service)
Protocol: as §1

NEK8 = target: T28, NEK8 (Homo sapiens, UniProt Q86SG6); assay: LanthaScreen Binding - Eu-anti-GST; details: read-out: Percentage of inhibition
T28 construct: purchased Life Technologies (SelectScreen Whole Panel service)
Protocol: as §1

TNIK = TNIK (Homo sapiens, UniProt Q9UKE5); assay: LanthaScreen Binding - Eu-anti-GST; details: read-out: Percentage of inhibition
Protocol: as §1

ERN2 = target: T29, ERN2 (Homo sapiens, UniProt Q76MJ5); assay: LanthaScreen Binding - Eu-anti-GST; details: read-out: Percentage of inhibition
T29 construct: purchased Life Technologies (SelectScreen)
Protocol: as §1

MLCK (MLCK2) = MLCK (MLCK2) (Homo sapiens, UniProt Q32MK0); assay: LanthaScreen Binding - Eu-anti-GST; details: read-out: Percentage of inhibition
Protocol: as §1

Chain of MmCLK1 (P22518 whole entry): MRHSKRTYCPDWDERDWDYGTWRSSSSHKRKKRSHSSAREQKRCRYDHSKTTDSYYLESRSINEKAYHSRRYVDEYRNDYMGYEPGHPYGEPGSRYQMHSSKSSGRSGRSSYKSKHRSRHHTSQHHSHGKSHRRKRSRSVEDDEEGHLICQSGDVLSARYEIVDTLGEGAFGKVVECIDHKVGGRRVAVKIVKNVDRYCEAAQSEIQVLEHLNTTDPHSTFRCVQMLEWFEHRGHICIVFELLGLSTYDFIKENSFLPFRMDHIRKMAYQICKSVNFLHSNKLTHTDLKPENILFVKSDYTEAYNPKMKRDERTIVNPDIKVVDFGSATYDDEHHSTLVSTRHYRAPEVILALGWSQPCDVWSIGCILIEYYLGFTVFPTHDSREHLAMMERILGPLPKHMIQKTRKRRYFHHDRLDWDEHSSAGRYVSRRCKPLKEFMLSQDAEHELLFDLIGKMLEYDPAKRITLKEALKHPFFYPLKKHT
T5 sequence (Q9UM73 with tags, fused parts or gaps INS1151T limits assumed): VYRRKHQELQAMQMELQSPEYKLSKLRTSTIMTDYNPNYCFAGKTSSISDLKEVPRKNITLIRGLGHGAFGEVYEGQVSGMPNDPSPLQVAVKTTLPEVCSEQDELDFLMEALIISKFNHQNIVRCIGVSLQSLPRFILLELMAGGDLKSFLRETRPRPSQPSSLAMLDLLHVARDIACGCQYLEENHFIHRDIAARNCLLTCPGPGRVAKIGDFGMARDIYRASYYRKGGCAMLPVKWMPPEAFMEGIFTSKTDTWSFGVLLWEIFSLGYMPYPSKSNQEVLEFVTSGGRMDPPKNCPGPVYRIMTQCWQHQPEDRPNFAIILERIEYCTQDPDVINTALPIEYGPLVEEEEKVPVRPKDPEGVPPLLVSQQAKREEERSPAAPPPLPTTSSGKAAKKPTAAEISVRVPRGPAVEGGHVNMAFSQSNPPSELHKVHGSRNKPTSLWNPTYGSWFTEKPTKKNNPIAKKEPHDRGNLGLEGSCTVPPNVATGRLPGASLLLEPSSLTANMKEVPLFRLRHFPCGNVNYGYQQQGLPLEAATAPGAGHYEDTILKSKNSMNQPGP
T12 sequence (Q8NEV4 whole entry): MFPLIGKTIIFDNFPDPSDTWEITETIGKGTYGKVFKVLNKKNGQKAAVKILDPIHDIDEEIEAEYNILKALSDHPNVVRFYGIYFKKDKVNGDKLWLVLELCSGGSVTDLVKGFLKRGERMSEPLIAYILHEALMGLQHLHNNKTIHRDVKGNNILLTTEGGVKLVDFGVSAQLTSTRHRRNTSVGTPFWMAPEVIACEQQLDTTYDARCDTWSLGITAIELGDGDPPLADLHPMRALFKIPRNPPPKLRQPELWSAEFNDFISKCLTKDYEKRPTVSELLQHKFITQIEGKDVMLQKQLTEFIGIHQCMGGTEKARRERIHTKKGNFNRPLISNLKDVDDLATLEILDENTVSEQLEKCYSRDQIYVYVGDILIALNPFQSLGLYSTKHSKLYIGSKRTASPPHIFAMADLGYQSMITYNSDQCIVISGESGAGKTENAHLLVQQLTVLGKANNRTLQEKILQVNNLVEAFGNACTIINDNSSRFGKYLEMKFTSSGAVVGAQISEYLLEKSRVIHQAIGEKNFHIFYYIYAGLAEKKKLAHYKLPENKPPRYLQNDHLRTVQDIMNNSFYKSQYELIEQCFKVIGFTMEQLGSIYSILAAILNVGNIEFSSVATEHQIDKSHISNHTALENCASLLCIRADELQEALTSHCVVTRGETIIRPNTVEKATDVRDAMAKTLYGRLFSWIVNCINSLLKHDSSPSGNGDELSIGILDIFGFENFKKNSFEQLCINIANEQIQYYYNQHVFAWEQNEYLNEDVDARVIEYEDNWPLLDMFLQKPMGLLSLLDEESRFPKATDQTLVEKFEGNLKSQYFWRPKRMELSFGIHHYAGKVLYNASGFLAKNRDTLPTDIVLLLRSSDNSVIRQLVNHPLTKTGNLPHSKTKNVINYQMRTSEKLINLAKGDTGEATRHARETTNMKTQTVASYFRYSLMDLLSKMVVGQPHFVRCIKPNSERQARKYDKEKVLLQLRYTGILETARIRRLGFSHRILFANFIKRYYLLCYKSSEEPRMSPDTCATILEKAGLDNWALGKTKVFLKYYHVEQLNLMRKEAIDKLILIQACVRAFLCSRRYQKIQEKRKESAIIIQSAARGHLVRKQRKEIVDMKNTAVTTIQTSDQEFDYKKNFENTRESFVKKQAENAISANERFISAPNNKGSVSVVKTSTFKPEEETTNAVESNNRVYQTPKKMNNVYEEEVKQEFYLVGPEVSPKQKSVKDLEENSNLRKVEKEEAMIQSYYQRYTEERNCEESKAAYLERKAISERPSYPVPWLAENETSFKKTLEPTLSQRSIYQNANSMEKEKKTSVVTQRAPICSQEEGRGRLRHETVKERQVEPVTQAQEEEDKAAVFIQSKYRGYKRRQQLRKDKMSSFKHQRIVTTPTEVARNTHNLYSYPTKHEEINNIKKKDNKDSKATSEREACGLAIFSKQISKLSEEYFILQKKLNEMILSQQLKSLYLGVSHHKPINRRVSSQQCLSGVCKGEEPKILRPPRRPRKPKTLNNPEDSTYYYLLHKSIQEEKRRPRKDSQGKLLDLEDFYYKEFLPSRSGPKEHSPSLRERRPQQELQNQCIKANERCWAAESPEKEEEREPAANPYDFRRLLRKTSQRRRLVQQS
Chain of SIK3 (Q9Y2K2 whole entry): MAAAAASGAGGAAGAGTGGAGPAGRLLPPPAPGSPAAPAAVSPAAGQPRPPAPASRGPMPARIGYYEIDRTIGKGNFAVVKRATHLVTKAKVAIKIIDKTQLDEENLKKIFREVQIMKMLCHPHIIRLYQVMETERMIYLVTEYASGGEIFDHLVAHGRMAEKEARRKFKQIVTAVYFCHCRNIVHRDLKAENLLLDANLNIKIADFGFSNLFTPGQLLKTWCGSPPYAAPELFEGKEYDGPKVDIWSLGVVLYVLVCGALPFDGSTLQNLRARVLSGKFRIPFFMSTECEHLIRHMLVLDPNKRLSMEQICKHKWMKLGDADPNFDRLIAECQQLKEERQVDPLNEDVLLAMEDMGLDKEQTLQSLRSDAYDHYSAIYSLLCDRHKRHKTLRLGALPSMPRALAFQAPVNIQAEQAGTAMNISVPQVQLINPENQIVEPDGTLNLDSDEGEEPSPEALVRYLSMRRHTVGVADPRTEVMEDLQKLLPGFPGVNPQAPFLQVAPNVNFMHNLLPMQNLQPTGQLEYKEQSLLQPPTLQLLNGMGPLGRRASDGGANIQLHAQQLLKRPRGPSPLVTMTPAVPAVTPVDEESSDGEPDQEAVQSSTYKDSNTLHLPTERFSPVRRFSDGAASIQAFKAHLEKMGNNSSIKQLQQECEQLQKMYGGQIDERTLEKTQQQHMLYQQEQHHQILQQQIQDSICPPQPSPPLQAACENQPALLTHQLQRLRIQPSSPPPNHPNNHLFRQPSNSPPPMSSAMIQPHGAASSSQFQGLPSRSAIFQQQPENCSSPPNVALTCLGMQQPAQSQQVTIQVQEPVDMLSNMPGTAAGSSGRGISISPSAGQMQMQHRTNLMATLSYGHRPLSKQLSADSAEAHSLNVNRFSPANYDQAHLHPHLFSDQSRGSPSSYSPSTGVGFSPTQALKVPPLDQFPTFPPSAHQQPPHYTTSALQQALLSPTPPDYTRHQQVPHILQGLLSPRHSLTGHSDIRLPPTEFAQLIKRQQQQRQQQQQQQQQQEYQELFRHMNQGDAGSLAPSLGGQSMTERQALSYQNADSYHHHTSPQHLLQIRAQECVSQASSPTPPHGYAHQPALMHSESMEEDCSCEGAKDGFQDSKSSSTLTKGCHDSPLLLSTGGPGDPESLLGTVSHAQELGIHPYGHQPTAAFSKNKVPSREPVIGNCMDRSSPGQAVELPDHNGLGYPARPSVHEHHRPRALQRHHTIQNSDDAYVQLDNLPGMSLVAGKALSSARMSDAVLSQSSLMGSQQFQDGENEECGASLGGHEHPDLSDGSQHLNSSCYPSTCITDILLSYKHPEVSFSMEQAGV
T16 sequence (Q86YV6 whole entry): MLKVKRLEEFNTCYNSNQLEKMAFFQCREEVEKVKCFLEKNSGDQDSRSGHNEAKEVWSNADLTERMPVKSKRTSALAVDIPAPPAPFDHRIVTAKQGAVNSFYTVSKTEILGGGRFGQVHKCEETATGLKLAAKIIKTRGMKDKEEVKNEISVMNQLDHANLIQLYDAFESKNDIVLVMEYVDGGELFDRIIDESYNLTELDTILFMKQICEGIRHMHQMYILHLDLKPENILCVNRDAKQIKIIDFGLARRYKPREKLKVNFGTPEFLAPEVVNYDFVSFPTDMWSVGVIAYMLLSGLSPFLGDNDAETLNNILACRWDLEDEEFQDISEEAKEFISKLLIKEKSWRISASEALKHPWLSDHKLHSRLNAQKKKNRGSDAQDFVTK
T22 sequence (Q15208 whole entry): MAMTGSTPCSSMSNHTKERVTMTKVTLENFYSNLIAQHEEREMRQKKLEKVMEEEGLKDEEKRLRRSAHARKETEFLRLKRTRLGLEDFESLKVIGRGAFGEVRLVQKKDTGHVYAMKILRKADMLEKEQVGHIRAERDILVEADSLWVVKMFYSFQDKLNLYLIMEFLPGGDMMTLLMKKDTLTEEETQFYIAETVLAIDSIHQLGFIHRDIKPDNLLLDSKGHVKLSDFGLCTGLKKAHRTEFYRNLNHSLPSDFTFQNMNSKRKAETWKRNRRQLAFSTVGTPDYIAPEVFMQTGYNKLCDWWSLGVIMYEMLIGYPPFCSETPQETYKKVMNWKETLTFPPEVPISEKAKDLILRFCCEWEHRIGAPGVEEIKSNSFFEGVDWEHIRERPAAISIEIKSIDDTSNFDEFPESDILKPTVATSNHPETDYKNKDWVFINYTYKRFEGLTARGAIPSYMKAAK

With `COc1ccc2[nH]c3c(=O)[nH]c4ccc(O)cc4c3c2c1` [Compound 55, 2-Hydroxy-10-methoxy-5,7-dihydro-6H-indolo[2,3-c]quinolin-6-one] as the compound, how does the remaining activity at 1 µM (MmCLK1; 1 μM, mean n = 2, % of maximum activity of DMSO control, read-out: % Residual activity at 1 μM CLK1) read?
Its remaining activity at 1 µM is 14%.

What about the “Selectivity index CLK1/Haspin” value (MmCLK1; IC50 CLK1/IC50 Haspin) of the same compound?
The value was 17.

And the IC50 (MmCLK1; dose-response curve, each point in duplicate, read-out: Kinase inhibition (IC50) CLK1)?
The IC50 was 0.033 µM.

What about the inhibition at 1 µM (TAOK1) of the same compound?
The inhibition at 1 µM was 35%.

And the inhibition at 1 µM (CDK14 (PFTK1)/cyclin Y)?
Its inhibition at 1 µM is 35%.

And the inhibition at 1 µM (STK32B (YANK2))?
Its inhibition at 1 µM is 7%.

And the inhibition at 1 µM (ALK C1156Y)?
The inhibition at 1 µM was 34%.

And the inhibition at 1 µM (MYO3B (MYO3 beta))?
Its inhibition at 1 µM is 53%.

And the inhibition at 1 µM (ALK T1151_L1152insT)?
Its inhibition at 1 µM is 32%.

What about the inhibition at 1 µM (SIK3) of the same compound?
The inhibition at 1 µM was 7%.

What about the inhibition at 1 µM (MLK4) of the same compound?
The inhibition at 1 µM was 18%.

What about the inhibition at 1 µM (RET G691S) of the same compound?
Its inhibition at 1 µM is 91%.

What about the inhibition at 1 µM (LIMK2) of the same compound?
Its inhibition at 1 µM is 11%.

What about the inhibition at 1 µM (BRAF) of the same compound?
The inhibition at 1 µM was 6%.

And the inhibition at 1 µM (AAK1)?
The inhibition at 1 µM was 97%.

And the inhibition at 1 µM (ICK)?
Its inhibition at 1 µM is 57%.

And the inhibition at 1 µM (DDR1)?
The inhibition at 1 µM was 5%.

What about the inhibition at 1 µM (MYO3A (MYO3 alpha)) of the same compound?
The inhibition at 1 µM was 33%.

What about the inhibition at 1 µM (CAMK2G (CaMKII gamma)) of the same compound?
Its inhibition at 1 µM is 30%.

And the inhibition at 1 µM (GAK)?
The inhibition at 1 µM was 90%.

And the inhibition at 1 µM (LATS2)?
The inhibition at 1 µM was 82%.

What about the inhibition at 1 µM (MYLK4) of the same compound?
The inhibition at 1 µM was 111%.

And the inhibition at 1 µM (PKN2 (PRK2))?
The inhibition at 1 µM was 32%.

And the inhibition at 1 µM (KIT D816H)?
Its inhibition at 1 µM is 80%.

And the inhibition at 1 µM (MAP3K5 (ASK1))?
Its inhibition at 1 µM is 28%.

And the inhibition at 1 µM (ACVR2A)?
Its inhibition at 1 µM is 8%.

What about the inhibition at 1 µM (KIT T670E) of the same compound?
Its inhibition at 1 µM is 63%.

What about the inhibition at 1 µM (DDR2 T654M) of the same compound?
The inhibition at 1 µM was 73%.

What about the inhibition at 1 µM (STK38 (NDR)) of the same compound?
The inhibition at 1 µM was 12%.

What about the inhibition at 1 µM (ULK2) of the same compound?
The inhibition at 1 µM was 25%.

What about the inhibition at 1 µM (CDK11/cyclin C) of the same compound?
The inhibition at 1 µM was 37%.

And the inhibition at 1 µM (TTK)?
Its inhibition at 1 µM is 42%.

And the inhibition at 1 µM (MAP3K14 (NIK))?
The inhibition at 1 µM was 79%.

And the inhibition at 1 µM (ABL1 Q252H)?
The inhibition at 1 µM was 77%.

And the inhibition at 1 µM (NEK8)?
Its inhibition at 1 µM is 16%.

What about the inhibition at 1 µM (TNIK) of the same compound?
The inhibition at 1 µM was 61%.

What about the inhibition at 1 µM (ERN2) of the same compound?
Its inhibition at 1 µM is 8%.

What about the inhibition at 1 µM (MLCK (MLCK2)) of the same compound?
The inhibition at 1 µM was 62%.
